Legend:
[1] = system: LS180; assay: 3-day growth inhibition assay; assay type: cell-based; details: Homo sapiens; LS180 (Colon), KRAS p.G12D, PIK3CA p.H1047R, PTEN p.I67K; read-out: Growth inhibition (IC50: nmol/L)
Description: (§1) The IC50 values for each compound in cell lines used in a series of animal experiments evaluating the antitumor effects of Compound (1) on KRAS mutant tumor xenografts were determined by a 3-day growth inhibition assay (Table 7).

[2] = system: LU65; assay: 3-day growth inhibition assay; assay type: cell-based; details: Homo sapiens, Lu-65; LU65 (NSCLC), KRAS p.G12C; read-out: Growth inhibition (IC50: nmol/L)
Description: as §1

[3] = system: SW1573; assay: 3-day growth inhibition assay; assay type: cell-based; details: Homo sapiens; SW1573 (NSCLC), KRAS p.G12C, PIK3CA p.K111E; read-out: Growth inhibition (IC50: nmol/L)
Description: as §1

[4] = system: SW1573 human lung tumor xenografts; details: 30 mg/kg/day
[5] = system: LU65 human lung tumor xenografts; assay: antitumor effect in mice with LU65 xenograft tumors; details: 30 mg/kg/day
Description: The tumor volumes and body weights of animals were recorded.

[6] = system: BT483; assay: growth inhibition assay, NF1 mutant cell line; assay type: cell-based; details: Homo sapiens, BT-483; BT483, ER+ breast, NF1 p.R1204W
Description: (§2) In order to investigate the growth inhibitory effect of Compound (1) in NF1 mutant cancer cell lines, the IC50 values of growth inhibition assay were obtained and compared then in Table 2.
(§3) In this experiment, to compare the growth inhibitory effect of Compound (1) with those of MAPK and PI3K signaling inhibitors, the IC50 values of trametinib (as a MEK inhibitor), and Alpelisib (as a PI3K inhibitor) were obtained and compared.

[7] = system: H1838; assay: growth inhibition assay, NF1 mutant cell line; assay type: cell-based; details: Homo sapiens, NCI-H1838; H1838, lung, NF1 p.N184Qfs*17
Description: as §2, §3

[8] = system: HCC202; assay: growth inhibition assay, NF1 mutant cell line; assay type: cell-based; details: HCC202, HER2+ breast, NF1 p.X465_splice
Description: as §2, §3

[9] = system: HCT116; assay: growth inhibition assay, NF1 mutant cell line; assay type: cell-based; details: Homo sapiens, HCT-116; HCT116, colon, NF1 p.P678Rfs*10, p.P388T
Description: as §2, §3

[10] = system: MDA-MB-175VII; assay: growth inhibition assay, NF1 mutant cell line; assay type: cell-based; details: Homo sapiens, ER+ breast, NF1 p.1679Dfs*21
Description: as §2, §3

[11] = system: MDA-MB-231; assay: growth inhibition assay, NF1 mutant cell line; assay type: cell-based; details: Homo sapiens; MDA-MB-231, TN breast, NF1 p.T467Hfs*3
Description: as §2, §3

[12] = system: MeWo; assay: growth inhibition assay, NF1 mutant cell line; assay type: cell-based; details: Homo sapiens, melanoma, NF1 p.Q1336*
Description: as §2, §3

[13] = system: RKO; assay: growth inhibition assay, NF1 mutant cell line; assay type: cell-based; details: Homo sapiens, colon
Description: as §2, §3

[14] = system: NF1 mutant cell lines; assay: growth inhibition assay, summary over the panel; assay type: cell-based; details: range over the cell lines of Table 2; read-out: IC50 values, range over NF1 mutant cell lines
Description: as §2, §3

[15] = system: MCF7 cells (control and NF1 knockdown); assay: immunoblotting of target inhibition and apoptosis induction; assay type: cell-based, human
Description: To investigate the mechanism of action of Compound (1) in inhibiting the growth of NF1 knockdown breast cancer cells, Compound (1), trametinib, Alpelisib, and fulvestrant were exposed to NF1-knockdown MCF7 and T47D cells at indicated final concentration for 24 hours. NF1, pPRAS40 Thr246, pYB1 Ser102, pS6RP Ser235/236, ERα, and cleaved PARP were detected by immunoblotting.

[16] = system: AsPC-1; assay: 3-day growth inhibition assay; assay type: cell-based; details: Homo sapiens, ASPC1; AsPC-1 (Pancreas), KRAS p.G12D; read-out: Growth inhibition (IC50: nmol/L)
Description: as §1

[17] = system: LS180 human colorectal tumor xenografts; assay: antitumor effect in mice with LS180 xenograft tumors; assay type: in vivo; details: 1 mg/kg/day
Description: The oncogenic KRAS mutations are diverse, including not only G12C but also G12X and G13X in the mutation hotspot Glycine at […]. To determine whether Compound (1), which targets downstream of MAPK and PI3K signaling, is effective against G12D mutated cancers, an efficacy experiment of Compound (1) was conducted using subcutaneously transplanted LS180 tumor derived from colorectal cancers with KRAS G12D and PIK3CA and PTEN gene alterations.
Evaluation was conducted by comparing the efficacy of 80 mg/kg/day of Compound (1) with that of 1 mg/kg/day MEK inhibitor trametinib used as a reference group.

[18] = system: AsPC-1 human pancreatic tumor xenografts; details: 1 mg/kg/day
Description: All treatments were administered every day by oral gavage. The tumor volumes and body weights of animals were recorded.

[19] = system: ER+/HER2− breast cancer cell lines; assay: immunoblotting, combination with fulvestrant, presence and absence of estrogen and NF1; assay type: cell-based
Description: The actual standard of care for ER+/HER2− breast cancer uses the adjuvant therapies such as tamoxifen, letrozole, or fulvestrant. Patients with recurrent or refractory tumors are treated with additional use of CDK4/6 inhibitors or Alpelisib for PIK3CA-mutated cancers.

SMILES	IC50 [1] [nmol/L]	IC50 [2] [nmol/L]	IC50 [3] [nmol/L]	IC50 [6] [µM]	IC50 [7] [µM]	IC50 [8] [µM]	IC50 [9] [µM]	IC50 [10] [µM]	IC50 [11] [µM]	IC50 [12] [µM]	IC50 [13] [µM]	IC50 [14] [µM]	also measured
C=CC(=O)N1CCN(c2nc(=O)n(-c3c(C)ccnc3C(C)C)c3nc(-c4c(O)cccc4F)c(F)cc23)[C@@H](C)C1 [AMG510, sotorasib, reference compound]	> 10000	7.17	> 10000	–	–	–	–	–	–	–	–	–	T/C ratio (%) ([4]; Day 15): 54%; Number of deaths ([4]; qd Day 1-14, po): 0; Tumor volume (mm^3) Day 15 Mean ± SE ([4]; qd Day 1-14, po): 429.2 ± 60.2 mm^3; Number of deaths [5]: 0; T/C ratio (%) ([5]; Day 13): 46%; Tumor volume (mm^3) Day 13 Mean ± SE ([5]; qd, po): 1067.9 ± 139.4 mm^3
Cc1nc(NC(=O)N2CCC[C@H]2C(N)=O)sc1-c1ccnc(C(C)(C)C(F)(F)F)c1 [Alpelisib]	–	–	–	0.179	6.41	0.918	6.34	1.09	> 10	> 10	2.69	≥ 0.179	apoptosis induction (cleaved PARP signal) ([15]; MCF7 NF1 knockdown cells versus control cells): attenuated; apoptosis induction (cleaved PARP signal) ([15]; MCF7 control cells (non-targeting siRNA), single agent): induced apoptosis
CC(=O)Nc1cccc(-n2c(=O)n(C3CC3)c(=O)c3c(Nc4ccc(I)cc4F)n(C)c(=O)c(C)c32)c1 [Trametinib]	9	0.739	> 10000	> 2	> 2	> 2	0.016	0.04	> 10	0.176	0.04	≥ 0.016	IC50 [16]: 0.693 nmol/L; Number of deaths [17]: 0; T/C ratio (%) ([17]; Day 15): 76%; Tumor volume (mm^3) Day 15 Mean ± SE ([17]; qd Day 1-14, po): 1129.3 ± 73.5 mm^3; Number of deaths [18]: 0; T/C ratio (%) ([18]; Day 22): 51%; Tumor volume (mm^3) Day 22 Mean ± SE ([18]; qd Day 1-21, po): 482.5 ± 25.6 mm^3
C[C@]12CC[C@@H]3c4ccc(O)cc4C[C@@H](CCCCCCCCC[S+]([O-])CCCC(F)(F)C(F)(F)F)[C@H]3[C@@H]1CC[C@@H]2O (some centres unmarked) [fulvestrant]	–	–	–	–	–	–	–	–	–	–	–	–	apoptosis induction ([19]; single agent, presence or absence of estrogen, NF1 wildtype and NF1 knockdown cells): little apoptosis inducing activity; ER reduction ([19]; treatment with fulvestrant alone): ER reduction was observed clearly
